Data on 14 compounds can be found in patent US5770591A, “Bis-platinum complexes as chemotherapeutic agents” (The University of Vermont and State Agricultural College, priority 1994, dated 1998).

Where two headings read alike, the source gives them in different places.

Data set [1] has as its system L-1210/dach murine leukemia cells. The data set can be described thus: In vitro cytotoxic activity (ID50), L-1210/dach. The data set is classed as cell-based. Conditions: Table II; solvent H2O, 10% DMSO or DMF per complex.
Method: The tests were carried out in vitro according to the procedures outlined by M. P. Hacker et al in Cancer Research, 1985, 45, 4748.
Data set [2] deals with L-1210/0 murine leukemia cells. As to the kind of experiment: In vitro cytotoxic activity (ID50, 50% inhibition of cell growth), L-1210/0. It counts as cell-based. The following applies: Table II; solvent H2O, 10% DMSO or DMF per complex.
Data set [3] has as its system L-1210/DDP murine leukemia cells. The data set can be described thus: In vitro cytotoxic activity (ID50), L-1210/DDP (resistant to cisplatin). The data set is classed as cell-based. The following applies: Table II; solvent H2O, 10% DMSO or DMF per complex.
For data set [4] the following is noted: treatment of patients; cited from earlier work.
Another data set has as its system tumors. The following applies: cited from earlier work.
The subject of data set [5] is L-1210 murine leukemia cell lines.
Method: The biological assays were performed as previously described by method of Hacker et al. Cancer Research, 1985, 45, 4748. Complexes were all dissolved in 10% DMSO.
For data set [6], the system named is L-1210/0 murine leukemia cells. As to the kind of experiment: In vitro cytotoxic activity (ID50, 50% inhibition of cell growth), L-1210/0. The data set is classed as cell-based. Conditions: Table III; dissolved in 10% DMSO; read-out: ID50 L-1210/O. From the text: (§1) where py=pyridine; quin=quinoline; isoquin=isoquinoline; Meim=methylimidazole. […] Complexes were all dissolved in 10% DMSO.

In data set [7] the test system is L-1210/DDP murine leukemia cells. The data set can be described thus: In vitro cytotoxic activity (ID50), L-1210/DDP (resistant to cisplatin). It counts as cell-based. Conditions: Table III; dissolved in 10% DMSO.
Excerpt: as §1

Another data set has as its system DNA. The following applies: background, cited from earlier work.

With `N.N.NCCCCN.[Cl][Pt][Cl].[Cl][Pt][Cl]` [BisPt4, [{cis-PtCl2 (NH3)}2 (H2 N(CH2)4 NH2)]], the IC50 stood at 0.336 µM in [1], 0.28 µM in data set [2] and 2.19 µM in [3].

With `N.N.NCCCCN.O=C1CC(=O)[O][Pt][O]1.O=C1CC(=O)[O][Pt][O]1` [BisPtmal, [{cis-Pt(mal)(NH3)}2 (H2 N(CH2)4 NH2)]], the IC50 was found to be 2.55 µM in data set [1], 0.93 µM in data set [2] and 5.03 µM in data set [3].

Consider `N.N.O=C([O-])C1(C(=O)[O-])CCC1.[Pt+2]` [Carboplatin, [Pt(NH3)2 (CBDCA)]], for which the Nephrotoxicity entry in data set [4] is reported as “marked reduction in the nephrotoxic effects”. Also, the “Antitumor activity / cytotoxic effect” value with tumors (background) is on record as “effective against the same spectrum of carcinomas as cisplatin”.

As for `N.N.N.N.NCCCCN.[Cl-].[Cl-].[Cl][Pt+].[Cl][Pt+]` [Example 1, [{trans-PtCl(NH3)2}2 H2 N(CH2)4 NH2]Cl2], the IC50 was 5.4 µM in data set [1], 3.4 µM in [2] and 0.9 µM in data set [3]. The “Cytotoxic activity (in words)” value in data set [5] was “highly active cytotoxic agents”.

As to `N.N.NCCCCN.[Cl][Pt][Cl].[Cl][Pt][Cl]` [Example 3, [{cis-PtCl2 (NH3)}H2 N(CH2)4 NH2 {trans-PtCl2 (NH3)}]], the IC50 came out at 2.6 µM in data set [1], 0.76 µM in data set [2] and 3.36 µM in data set [3].

`N.N.[Cl][Pt][Cl]` [NH3 NH3 cis, cis-[PtCl2 (NH3)2]]: the IC50 stood at 0.2 µM in [6] and 8 µM in data set [7].

For the compound `N.N.[Cl][Pt+2][Cl]` [NH3 NH3 trans, trans-[PtCl2 (NH3)2]], the IC50 in data set [6] was more than 20 µM; in data set [7], more than 50 µM. The “Formation of 1,2-intrastrand crosslink” value with DNA is on record as “cannot form the 1,2-intrastrand crosslink”. Further, the DNA binding result in the data set with DNA (listed as trans-DDP) is “do bind to DNA”; in the data set on DNA (listed as trans-[Pt(NH3)2 Cl2 ]), “bind avidly to the DNA molecule”. The “Antitumor activity / cytotoxic effect” value with tumors (background, listed as trans-DDP) is reported as “do not exhibit antitumor activity”; with tumors (background, listed as trans-[Pt(NH3)2 Cl2 ]) it was “no cytotoxic effect”.

For `N.N.N.[Cl][Pt+]` [[Pt(NH3)3 Cl]^+], the DNA binding entry is given as “bind avidly to the DNA molecule” in the data set on DNA and “do bind to DNA” with DNA (listed as [(Pt(NH3)3 Cl]^+)). For the same compound, in the data set on DNA, the “Formation of 1,2-intrastrand crosslink” value is recorded as “cannot form the 1,2-intrastrand crosslink”. The “Antitumor activity / cytotoxic effect” value in the data set with tumors (background) was “no cytotoxic effect”; in the data set on tumors (background, listed as [(Pt(NH3)3 Cl]^+)), “do not exhibit antitumor activity”.

For `Cl.Cl.[Pt].c1ccncc1.c1ccncc1` [py py cis], the IC50 came to 8.96 µM in [6] and 12.5 µM in data set [7].

Regarding `[Cl][Pt][Cl].c1ccncc1.c1ccncc1` [py py trans, trans-[PtCl2 (pyridine)2]], the IC50 in data set [6] stood at 0.61 µM; in data set [7], 0.8 µM. Moreover, the “Cytotoxic activity (in words)” value in data set [5] is listed as “as cytotoxic as cisplatin”. Also, the “Cross-resistance with the parent cisplatin” value in data set [5] (Table III in vitro data) is given as “non-cross-resistant with the parent cisplatin”.

On to [Pt(dien)Cl]Cl, for which the IC50 in [1], in data set [2] and in data set [3] was more than 20 µM in each case. In addition, the “Cytotoxic activity (in words)” value in data set [5] was “totally inactive”. For the same compound, the DNA binding entry in the data set with DNA is recorded as “do bind to DNA”. Further, in the data set with tumors, the “Antitumor activity / cytotoxic effect” value is “do not exhibit antitumor activity”.

In the case of “[PtCl2 (iso-quinoline)(DMSO)] [iso-quin DMSO trans]”, the IC50 in [6] amounted to 2.75 µM; in data set [7], 1.17 µM.

In the case of “[PtCl2 (quinoline)(DMSO)] [quin DMSO trans]”, the IC50 in data set [6] stood at 0.4 µM; in [7], 1.57 µM.

Turning to “trans-[PtCl2 (pyridine)(DMSO)] [py DMSO trans]”, the IC50 in data set [6] was found to be 6.62 µM; in [7] it was 5.67 µM.
